The values that follow come from patent US20260327570A1, “METHOD FOR PRODUCING ORGANOIDS” (Chungnam National University Hospital, priority 2022, published 2026).

The subject of this test is lung cancer organoids from lung cancer tissue exhibiting EGFR mutations. Nature of the test: Drug sensitivity test of lung cancer organoids (CellTiter-Glo 3D cell viability; calcein-AM staining). The class given is cell-based, human. The settings on record: for AUC (area under the curve) / IC50: EGFR-mutant lung cancer organoids, six concentrations, drug treatment for 3 days, viability on day 6; for IC50: Homo sapiens; for sensitivity of lung cancer organoids from EGFR-mutant lung cancer patients: result in words, EGFR-TKIs vs ALK inhibitors, consistent with the clinical response of EGFR-mutant patients. As for the experimental part: The experimental overview is conceptually illustrated in FIG. 12.
The organoids were harvested and mixed with Matrigel (Corning Life Sciences, USA, catalog #354263) and seeded onto pillar plates at 5×10^5 cells/mL. Next, the Matrigel-cell mixture (1.5 μL) was spotted onto the coated pillar plates using a pre-cooled ASFA spotter (Medical & Bio Decision, Suwon, Republic of Korea) and incubated in an inverted position at 4 °C for 15 minutes to allow cells to aggregate at the bottom of the spots. The plates were then placed in humidity chamber at 37 °C to allow the spot to gel. Subsequently, the plates were combined with well plates containing fresh medium. After 3 days, cells were treated with EGFR or ALK targeting agents at six concentrations using the ASFA spotter. Cell viability was measured by staining with 0.5 μM calcein-AM at 37 °C for 1 hour, followed by two PBS washes for 20 minutes. The organoid spots were scanned using an automated optical fluorescence scanner (ASFA scanner, Medical & Bio Decision, Korea) The scanner's microscope automatically focused on cell spots by moving in the z-direction, capturing 384 individual images at 4× magnification from one stained pillar/well plate. The images were then integrated into a single JPEG image for data analysis. The scanned images were analyzed using CellAnalyzer version 2.0 (Medical & Bio Decision). After scanning the cells, the organoid spots were transferred to new 384-well plates containing CellTiter-Glo 3D reagent to measure intracellular ATP levels via luminescence activity.
In brief, a total of 5000 single cells per pillar of the plate were seeded in 1.5 μL medium and cultured for 3 days. Subsequently, various EGFR-TKIs and ALK inhibitors were administered at multiple doses for 3 days to determine IC50 and AUC (area under the curve). On day 6, organoid viability was confirmed using fluorescent dye Calcein-AM (see FIG. 13), and survival rates for each drug were measured using CellTiter-Glo 3D cell viability assay (G9681; Promega) (see FIG. 14).

In general, IC50 refers to the concentration that inhibits the measured activity by half. Take `C=CC(=O)Nc1cc(Nc2nccc(-c3cn(C)c4ccccc34)n2)c(OC)cc1N(C)CCN(C)C` [Osimertinib]: the “AUC (area under the curve)” value is reported as 133.9, the IC50 was 1.8 µM and the “sensitivity of lung cancer organoids from EGFR-mutant lung cancer patients” value is on record as “showed sensitivity”.

Turning to `CCc1cc2c(cc1N1CCC(N3CCOCC3)CC1)C(C)(C)c1[nH]c3cc(C#N)ccc3c1C2=O` [Alectinib], the “AUC (area under the curve)” value is reported as 240.9 and the IC50 is > 50 µM.

Take `CN(C)C/C=C/C(=O)Nc1cc2c(Nc3ccc(F)c(Cl)c3)ncnc2cc1O[C@H]1CCOC1` [Afatinib]: the “AUC (area under the curve)” value is listed as 125.1, the IC50 is 0.79 µM and the “sensitivity of lung cancer organoids from EGFR-mutant lung cancer patients” value was “showed sensitivity”.

Consider `C[C@@H](Oc1cc(-c2cnn(C3CCNCC3)c2)cnc1N)c1c(Cl)ccc(F)c1Cl` [Crizotinib], for which the “AUC (area under the curve)” value is listed as 177.2 and the concentration for half-maximal inhibition (IC50) is 7.1 µM.
